Our source for the Z-SCORE values is paper PMC5653977 (EMBO Molecular Medicine, 2017).

The subject of this assay is NRG1-ERBB4 signaling. Put plainly: Nrg1-ERBB4-PIK3R1 split TEV co-culture compound screen of the NIH Clinical Collection. The class given is cell-based, human. The source says:
For our HTS‐compatible split TEV assay approach, human full‐length ERBB4‐Cyt1 was fused to the NTEV fragment, a TEV protease cleavage site (tevS) and the artificial co‐transcriptional activator Gal4‐VP16 (ERBB4‐NTEV‐tevS‐GV); human PIK3R1 was fused to the CTEV fragment (PIK3R1‐CTEV) (Fig 1A). Upon ERBB4 activation, PIK3R1 is recruited to the receptor resulting in a reconstituted protease activity that cleaves off GV. In turn, released GV translocates to the nucleus and binds to upstream activating sequences (UAS) to activate the transcription of a firefly luciferase reporter gene (Fig 1A). A constitutively expressed Renilla luciferase driven under the control of the human thymidine kinase (TK) promoter was used as control to address off‐target effects related to toxicity.
For small molecule screening, the NIH‐NCC Clinical Collection library (sets NCC‐003 and NCC‐201) was used containing 727 small molecules that are FDA‐approved and have a history in clinical applications (www.nihclinicalcollection.com). A Hamilton Labstar robot connected to 37 and 4°C incubators for cell incubation and compound storage and application (Cytomat automated incubator, ThermoScientific) and to a luciferase reader (Berthold Technologies) was used to automatically perform the screening. […] Each batch was screened three times.
For one 96‐well plate, 4 × 10^6 PC12 cells were harvested and diluted in 5 ml assay medium (phenol red‐free DMEM (low glucose, Life Technologies), 10% FCS, 5% HS, no antibiotics). The split TEV assay plasmids (2 μg pcDNA3_ERBB4‐NTEV‐tevS‐GV‐2xHA, 2 μg pTag4C_PIK3R1‐CTEV‐2xHA, 2 μg p5xUAS_firefly luciferase, 2 μg pTK_Renilla luciferase, and 0.5 μg pECFP‐C1 for examining transfection efficiency) were diluted in 2.5 ml Opti‐MEM (Life Technologies) and vortexed. In parallel, 20 μl of the transfection reagent Lipofectamine 2000 was diluted in 2.5 ml Opti‐MEM and vortexed.
For plating of one 96‐well plate, 10 ml suspension, containing the 4 × 10^6 in solution‐transfected cells, was placed in the bubble paddle reservoir of the Hamilton Cellstar robot. 100 μl was seeded per 96‐well using the 96‐tip pipetting head. The homogeneity of the cell suspension was guaranteed over time by mild stirring using the paddling device inside the reservoir. For five plates each, 50 ml of additional cell suspension was used to allow for losses of inaccessible volume.
The cells were allowed to express the plasmids for 24 h before compounds were added. Proper expression and transfection efficiency were verified by ECFP expression on a clear control plate. The compounds were applied in a final concentration of 10 μM using DMSO as diluent. […] Thirty minutes later, 10,000 Nrg1‐expressing PC12 cells in 100 μl assay medium were seeded on top. 24 h after addition of the compounds, the cells were lysed using 40 μl Passive Lysis buffer (Promega) and subjected to a Dual Luciferase Assay (Promega) according to the manufacturer's instructions. The data were analyzed in R Bioconductor using the package cellHTS2 (http://www.bioconductor.org/packages/devel/bioc/html/cellHTS2.html), assessed using the z‐score, and visualized using the program Mondrian (http://stats.math.uni-augsburg.de/mondrian/).

The mark [1] stands for this setting: compound screen of the NIH Clinical Collection, sheet raw data NCC-003, compounds ranked by Z-score.
Setting [2] is: NIH Clinical Collection NCC-003 raw data, compounds ranked by Z-score, 'flagged' given instead of a Z-score.
The mark [3] stands for this setting: compounds at 10 μM, 24 h, PC12 split TEV assay cells co-cultured with Nrg1-expressing PC12 cells, analysed with cellHTS2.

Counter-ions that a name gives are not always drawn.

Consider `O=c1[nH]c(=O)n(C2CCCO2)cc1F` (centres unmarked) [FTORAFUR], for which, under setting [1], the Z-SCORE was -0.09.
For the molecule `COC(=O)Nc1nc2cc(C(=O)c3ccc(F)cc3)ccc2[nH]1` [FLUBENDAZOLE], the Z-SCORE result under setting [2] is listed as “flagged”.
`CCN(CC)CCOC(=O)c1ccc(N)cc1` [Novocain, reference compound] showed a Z-SCORE under setting [3] of -0.44.
Take `C[C@H]1O[C@@H](O[C@H]2[C@@H](O)C[C@H](O[C@H]3[C@@H](O)C[C@H](O[C@H]4CC[C@@]5(C)[C@H](CC[C@@H]6[C@@H]5C[C@@H](O)[C@]5(C)[C@@H](C7=CC(=O)OC7)CC[C@]65O)C4)O[C@@H]3C)O[C@@H]2C)C[C@H](O)[C@@H]1O` [DIGOXIN, reference compound]: under setting [3], the Z-SCORE is listed as -1.73.
As for `COC(=O)C1=C(C)NC(C)=C(C(=O)O[C@@H]2CCCN(Cc3ccccc3)C2)[C@@H]1c1cccc([N+](=O)[O-])c1.Cl` (racemic) [BENIDIPINE HCl], the Z-SCORE under setting [2] is given as -1.41.
For `CCCN[C@H]1CCc2nc(N)sc2C1` [Pramipexole], under setting [1], the Z-SCORE is on record as -0.29.
The same measure, in the same setting: to `OCc1cc(C(O)CNCCCCCCOCCCCc2ccccc2)ccc1O` (centres unmarked) [Salmeterol] belongs 0.6; to `CC(C)c1nc(CN(C)C(=O)N[C@H](C(=O)N[C@@H](Cc2ccccc2)C[C@H](O)[C@H](Cc2ccccc2)NC(=O)OCc2cncs2)C(C)C)cs1` [RITONAVIR], -0.37.
Under setting [3], `CN(C)CCC=C1c2ccccc2COc2ccccc21` [DOXEPIN HYDROCHLORIDE, reference compound] yielded a Z-SCORE of 1.31.
Molecule `C[C@H]1COc2c(C3(N)CC3)c(F)cc3c(=O)c(C(=O)O)cn1c23` [PAZUFLOXACIN] returned a Z-SCORE under setting [1] of -0.48.
Turning to `COc1ccc2[nH]cc(C3=CCNCC3)c2c1` [RU 24969], the Z-SCORE under setting [1] is recorded as 0.79.
Molecule `O=C(C1CCCCC1)N1CC(=O)N2CCc3ccccc3C2C1` (centres unmarked) [PRAZIQUANTEL, reference compound] gave a Z-SCORE under setting [3] of 0.38.
The molecule `CN(C)CCC(c1ccc(Cl)cc1)c1ccccn1` (centres unmarked) [Chlorpheniramine] gave a Z-SCORE under setting [1] of -0.07.
For `OC(c1cc(C(F)(F)F)nc2c(C(F)(F)F)cccc12)C1CCCCN1` (centres unmarked) [Mefloquine hydrochloride, reference compound], the Z-SCORE entry under setting [3] is “flagged”.
On the same count and under the same terms, to `CC[C@@H](CO)NCCN[C@@H](CC)CO` [Ethambutol, reference compound] belongs -0.12.
For `Nc1nc(Cl)nc2c1ncn2[C@H]1C[C@H](O)[C@@H](CO)O1` [2-Chloro-2'-deoxyadenosine, reference compound], the Z-SCORE by setting is: under setting [2], -3.5; under setting [3], -3.5.
Molecule `COCC1=C(C(=O)OC(C)OC(=O)OC(C)C)N2C(=O)[C@@H](NC(=O)/C(=N\OC)c3csc(N)n3)[C@H]2SC1` (some centres unmarked) [CEFPODOXIME PROXETIL] showed a Z-SCORE under setting [1] of 0.53.
Under setting [1], `CC(C)(C)NC(=O)[C@H]1CC[C@H]2[C@@H]3CC[C@H]4NC(=O)C=C[C@]4(C)[C@H]3CC[C@]12C` [FINASTERIDE] registered a Z-SCORE of -0.75.
`Cl.O=C1[C@H]2CCCC[C@H]2C(=O)N1CCCCN1CCN(c2nsc3ccccc23)CC1` [PEROSPIRONE HCl]: the Z-SCORE under setting [2] is -1.42.
Regarding `Cc1ccc(N(CC2=NCCN2)c2cccc(O)c2)cc1` [PHENTOLAMINE HCL, reference compound], under setting [3], the Z-SCORE is given as -1.17.
Still for that read-out and setting: then `NS(=O)(=O)c1cc2c(cc1C(F)(F)F)NC(Cc1ccccc1)NS2(=O)=O` (centres unmarked) [Bendrofluazide, reference compound], with 0.53.
`CC1=C(C(=O)O)N2C(=O)[C@@H](NC(=O)[C@H](N)c3ccccc3)[C@H]2SC1` [Cephalexin monohydrate] showed a Z-SCORE under setting [2] of -1.51.
On the same count and under the same terms, then `OC[C@H]1O[C@@H](n2cnc3c(NC4CCCC4)nc(Cl)nc32)[C@H](O)[C@@H]1O` [CCPA], with -1.19.
In turn, `CC(=O)Oc1ccccc1C(=O)Nc1ncc([N+](=O)[O-])s1` [NITAZOXANIDE] gave a Z-SCORE under setting [1] of 1.04.
`O=C(O)c1cc(-c2ccc(F)cc2F)ccc1O` [Diflunisal, reference compound] displayed a Z-SCORE under setting [3] of -0.6.
`Nc1ncn([C@@H]2O[C@H](CO)[C@@H](O)[C@H]2O)c(=O)n1` [5-Azacytidine, reference compound]: the Z-SCORE entry under setting [3] is recorded as “flagged”.
Regarding `C=C1C[C@@H]2[C@H](CC[C@]3(C)C(=O)CC[C@@H]23)[C@@]2(C)C=CC(=O)C=C12` [EXEMESTANE], the Z-SCORE under setting [2] was -1.23.
In turn, `CN(CCOc1ccc(NS(C)(=O)=O)cc1)CCc1ccc(NS(C)(=O)=O)cc1` [DOFETILIDE] displayed a Z-SCORE under setting [1] of 0.
For the molecule `C[C@]12CCC(=O)C=C1CC[C@@H]1[C@@H]2[C@@H](O)C[C@@]2(C)[C@H]1CC[C@]2(O)C(=O)CO` [HYDROCORTISONE, reference compound], the Z-SCORE under setting [3] is reported as -1.61.
For `COc1cc(N)c(Cl)cc1C(=O)NC1CCN(CCCOc2ccc(F)cc2)CC1OC` (centres unmarked) [Cisapride], under setting [1], the Z-SCORE is -0.15.
`CCOc1cc(N)c(Cl)cc1C(=O)NCC1CN(Cc2ccc(F)cc2)CCO1` (centres unmarked) [MOSAPRIDE CITRATE]: the Z-SCORE under setting [1] was found to be 0.73.
On the same count and under the same terms, to `CC[C@@H]1C(=O)OC[C@@H]1Cc1cncn1C` [PILOCARPINE HYDROCHLORIDE] belongs -0.77.
In the case of `CCCCC1=NC2(CCCC2)C(=O)N1Cc1ccc(-c2ccccc2-c2nnn[nH]2)cc1` [Irbesartan, reference compound], the Z-SCORE is on record as 4.26 under setting [1] and 4.26 under setting [3].
As for `C[C@@H]1C[C@H]2[C@@H]3CCC4=CC(=O)C=C[C@]4(C)[C@@]3(F)[C@@H](O)C[C@]2(C)[C@@]1(O)C(=O)CO` [Dexamethasone, reference compound], under setting [3], the Z-SCORE came out at 0.88.
`O=c1cnn([C@@H]2O[C@H](CO)[C@@H](O)[C@H]2O)c(=O)[nH]1` [6-AZAURIDINE] had a Z-SCORE under setting [2] of -1.32.
Regarding `COc1ccc(CCN)cc1OC` [Homoveratrylamine], the Z-SCORE under setting [1] is given as -0.37.
Same read-out and setting: then `Cc1ncc2n1-c1ccc(Cl)cc1C(c1ccccc1F)=NC2` [MIDAZOLAM HCl], with 0.91.
Regarding `O=S(=O)(O)CCS` [Mesna, reference compound], the Z-SCORE under setting [3] came out at 0.04.
In turn, `O=C1CCc2ccc(OCCCCN3CCN(c4cccc(Cl)c4Cl)CC3)cc2N1` [ARIPIPRAZOLE] returned a Z-SCORE under setting [2] of -1.84.
For the molecule `CCCc1nc(C)c2c(=O)[nH]c(-c3cc(S(=O)(=O)N4CCN(CC)CC4)ccc3OCC)nn12.O=C(O)CC(O)(CC(=O)O)C(=O)O` [Vardenafil citrate, reference compound], the Z-SCORE was 5.88 under setting [1] and 5.88 under setting [3].
Consider `OCCN1CCN(CCCN2c3ccccc3Sc3ccc(Cl)cc32)CC1` [PERPHENAZINE, reference compound], for which the Z-SCORE under setting [3] is listed as 0.23.
Under setting [1], Benzeneacetic acid came in with a Z-SCORE of -0.01.
As for `NCC(=O)CCC(=O)O` [Aminolevulinic Acid, reference compound], the Z-SCORE under setting [3] is -0.04.
Same read-out and setting: then `CC1=C(CC(=O)O)c2cc(F)ccc2/C1=C\c1ccc([S+](C)[O-])cc1` (centres unmarked) [Sulindac, reference compound], with 1.51.
`COc1ccc2[n-]c([S+]([O-])Cc3ncc(C)c(OC)c3C)nc2c1.COc1ccc2[n-]c([S+]([O-])Cc3ncc(C)c(OC)c3C)nc2c1.[Mg+2]` (centres unmarked) [ESOMEPRAZOLE Mg]: under setting [1], the Z-SCORE is given as 0.45.
Same read-out and setting: then `COc1ccccc1OCC(O)CN1CCN(CC(=O)Nc2c(C)cccc2C)CC1` (centres unmarked) [Ranolazine dihydrochloride], with 0.21.
Take `CNCC(O)c1ccc(O)c(O)c1.Cl` (racemic) [(+/-)-Epinephrine hydrochloride, reference compound]: under setting [3], the Z-SCORE is on record as -0.69.
Regarding `c1cnc(N2CCN(Cc3ccc4c(c3)OCO4)CC2)nc1` [Piribedil], the Z-SCORE under setting [1] amounted to 1.22.
In the case of `CC(=O)CC(c1ccccc1)c1c(O)c2ccccc2oc1=O` (centres unmarked) [WARFARIN SODIUM, reference compound], the Z-SCORE under setting [3] is listed as -0.02.
Molecule `CC1(C)S[C@@H]2[C@H](/N=C/N3CCCCCC3)C(=O)N2[C@H]1C(=O)O` returned a Z-SCORE under setting [1] of 1.1.
